Among the data in BindingDB's records for doi:10.1021/ja011034p (University of Pennsylvania, 2001) are Kd values, retold here.

pKd: −log10 of the molar value.

In the assay the target is Carbonic anhydrase 2 [F130V] (Homo sapiens, UniProt P00918, F130V). The assay can be described thus: In vitro binding of inhibitor to hCA-II. The following applies: pH 7.4; 37 °C. The procedure:
Inhibitor binding to CA II was determined using a fluorescence competition assay. Displacement of dansylamide and binding of the inhibitor was determined by measuring and comparing the average fluorescence intensities of the treated versus control reactions. Binding constants were estimated from a Dixon plot of the data (reciprocal of the average fluorescence intensity versus inhibitor concentration)
By pKd is commonly meant the negative decadic logarithm of the Kd, by convention in mol/L. A high value points to a small Kd. The compound `NS(=O)(=O)c1ccc(C(=O)NCc2ccccc2F)cc1` [N-[(2-fluorophenyl)methyl]-4-sulfamoylbenzamide] gave a pKd of 8.64.

Compound `NS(=O)(=O)c1ccc(C(=O)NCc2c(F)c(F)c(F)c(F)c2F)cc1` [N-[(2,3,4,5,6-pentafluorophenyl)methyl]-4-sulfamoylbenzamide] gave a pKd of 8.70.

In the case of `NS(=O)(=O)c1ccc(C(=O)NCc2cccc(F)c2F)cc1` [N-[(2,3-difluorophenyl)methyl]-4-sulfamoylbenzamide], the pKd is 8.80. Under `NS(=O)(=O)c1ccc(C(=O)NCc2c(F)cccc2F)cc1` [N-[(2,6-difluorophenyl)methyl]-4-sulfamoylbenzamide] stands 8.41.
